Results from the OPERA property sets (Mansouri et al. 2018).

details: not given

SMILES	boiling point [°C]	log10 vapour pressure (mmHg)	melting point [°C]	ready biodegradability	log10 Koc (L/kg)	log10 Henry constant (atm·m³/mol)	log10 biodegradation half-life (days)
ClC(Cl)=C(Cl)C(Cl)(Cl)Cl	210	-0.613	-72.9	–	–	–	–
CCCCCCCCCCCC1=C(O)C(=O)C=C(O)C1=O	–	–	142	–	–	–	–
CCC(Br)(Br)CBr	214	–	–	–	–	–	–
O=C(/C=C/c1cccc([N+](=O)[O-])c1)c1ccccc1	–	–	146	–	–	–	–
C=CCNc1ccccc1	219	–	–	–	–	–	–
O=C[C@@H](O)C(O)CO (stereo in doubt)	–	–	129	–	–	–	–
CCC(CO)(CO)COCC(CC)(CO)CO	–	–	110	not readily biodegradable	–	–	–
CC(C)C(=O)C(C)C	125	1.13	-69	–	–	–	–
CC(c1ccccc1)c1ccc(O)cc1 (stereo not given)	–	–	–	not readily biodegradable	–	–	–
O=c1ccc2cc(Cl)ccc2o1	–	–	165	–	–	–	–
CC(=O)OCC(=O)[C@@]12N=C(C)O[C@@H]1C[C@H]1[C@@H]3CCC4=CC(=O)C=C[C@]4(C)[C@H]3[C@@H](O)C[C@@]12C	–	–	256	–	–	–	–
CC(O)CN(CCN(CC(C)O)CC(C)O)CC(C)O (stereo not given)	–	–	–	not readily biodegradable	–	–	–
c1ccc(C2CCCC2)cc1	219	–	–	–	–	–	–
COC1=CC(=O)C=C(OC)C1=O	–	–	256	–	–	–	–
Cc1cc([N+](=O)[O-])c(N)c([N+](=O)[O-])c1	–	–	172	–	–	–	–
COCCOc1c(OC)cc(Cc2cnc(N)nc2N)cc1OC	–	–	154	–	–	–	–
CN(C)c1cccc2c(S(=O)(=O)Cl)cccc12	–	–	70	–	–	–	–
Nc1c(Cl)cc(Cl)cc1Br	273	–	83.5	–	–	–	–
CCCCCC1=CCCC1	179	–	-83	–	–	–	–
Cc1cccc(N)c1N	255	-3.26	63.5	–	–	–	–
FC(Cl)(Br)Br	80.3	–	–	–	–	–	–
CCC(=O)Nc1ccccc1	222	–	106	not readily biodegradable	–	–	–
C#CCCC(C)=O	149	–	–	–	–	–	–
O=C(O)c1ccccc1[N+](=O)[O-]	–	–	148	readily biodegradable	–	–	–
CCN(CC)CCOCCO	222	–	–	–	–	–	–
O=C(NC(=O)c1c(F)cccc1F)Nc1ccc(OC(F)(F)C(F)OC(F)(F)F)c(Cl)c1 (stereo not given)	–	–	178	–	–	–	–

SMILES	boiling point [°C]	log10 vapour pressure (mmHg)	melting point [°C]	ready biodegradability	log10 Koc (L/kg)	log10 Henry constant (atm·m³/mol)	log10 biodegradation half-life (days)
CC1=NCCN1	196	–	107	–	–	–	–
CCOC(=O)CCBr	179	–	–	–	–	–	–
Cc1c(C(C)C)c(=O)n(-c2ccccc2)n1C	–	–	103	–	–	–	–
CCCCSC	124	1.19	-97.8	–	–	–	–
C1=CCC2CC=CC2C1 (stereo not given)	–	–	–	not readily biodegradable	–	–	–
C=CC(=O)O[C@@H]1C[C@H]2CC[C@]1(C)C2(C)C	–	–	97	–	–	–	–
Cc1cnc2ccccc2c1C	291	–	73.5	–	–	–	–
CCCCCCCCCCCCCCCCCCCCCCCC(=O)O	–	–	84.2	–	–	–	–
Oc1cc(Cl)c(Cl)cc1Cl	247	-2.12	69	not readily biodegradable	3.36	–	–
COc1nsnc1NS(=O)(=O)c1ccc(N)cc1	–	–	150	–	–	–	–
O=C(O)C=Cc1ccccc1	–	–	–	readily biodegradable	–	–	–
Clc1cc(Cl)c(-c2ccccc2)c(Cl)c1	–	-3.15	–	–	–	–	–
CC(=O)N1CCCC(C)C1 (stereo not given)	239	–	-13.6	–	–	–	–
CNC(=O)Nc1ccc(OC)c(Cl)c1	–	–	–	–	1.84	–	–
C1CSCSC1	–	–	54	–	–	–	–
CCC1CCCCN1C(=O)COC(=O)c1ccccc1 (stereo not given)	–	–	54.5	–	–	–	–
C=CCN	53.3	2.38	-88.2	–	–	–	–
O=[N+]([O-])c1ccc(Cl)cc1	242	-1.66	83.5	not readily biodegradable	–	-5.31	–
CC(C(O)c1ccc(O)cc1)N1CCC(Cc2ccccc2)CC1 (stereo not given)	–	–	114	–	–	–	–
C=C(C(=O)O)C(F)(F)F	–	–	51.5	–	–	–	–
COc1nc(C)nc(NC(=O)NS(=O)(=O)c2ccccc2Cl)n1	–	-10.6	176	–	2.19	–	–
COP(=O)(OC)O/C(=C\Cl)c1ccc(Cl)cc1Cl	–	-5.01	69.5	–	–	–	–
OCCCc1ccccc1	235	-1.7	–	–	–	-6.69	–
CN1Cc2c(N)cccc2C(c2ccccc2)C1 (stereo not given)	–	–	180	–	–	–	–
NC(=O)C#CC#CC#CCO	–	–	140	–	–	–	–
Cc1cccc(C)c1NC(=O)C(C)N (stereo not given)	–	–	256	–	–	–	–

SMILES	boiling point [°C]	log10 vapour pressure (mmHg)	melting point [°C]	ready biodegradability	log10 Koc (L/kg)	log10 Henry constant (atm·m³/mol)	log10 biodegradation half-life (days)
c1ccc2c(Nc3cccc4ccccc34)cccc2c1	–	–	115	–	–	–	–
CCC(CC)=NO	168	–	–	–	–	–	–
CCCCOC(=O)c1ccccc1C(=O)OCc1ccccc1	370	-5.08	–	readily biodegradable	3.72	–	–
CCCCCCCCBr	200	-0.418	-55	–	–	–	–
NCCc1ccc(Br)cc1	–	–	–	readily biodegradable	–	–	–
Nc1cc([N+](=O)[O-])ccc1Cl	–	–	121	–	–	–	–
O=S(=O)(c1ccc(O)cc1)c1ccc(O)cc1	–	–	240	not readily biodegradable	–	–	–
CCC(C)(C)c1cc(O)c(C(C)(C)CC)cc1O	–	–	180	–	–	–	–
COc1ccc(NC(=O)N(C)C)cc1Cl	–	–	126	–	1.72	–	–
C[Si](Cl)(Cl)C(Cl)Cl	149	–	–	–	–	–	–
N#Cc1c(Cl)c(Cl)c(Cl)c(Cl)c1C#N	–	–	–	not readily biodegradable	–	–	–
Clc1ccc(OCOCC#CI)cc1	–	–	–	not readily biodegradable	–	–	–
CCCCCCCCCCCCCC(=O)OC	295	-3.31	19	–	–	–	–
COc1nc(C)nc(N)n1	–	–	260	–	–	–	–
BrCCC1CCCCC1	212	–	-57	–	–	–	–
CCC(=O)N(CC)CC	191	–	–	–	–	–	–
CS(=O)(=O)Cl	162	–	–	–	–	–	–
CCCCCCN(CCCCCC)CCCCCC	262	–	–	–	–	–	–
CC(=O)[C@H]1CC[C@H]2[C@@H]3CC[C@@H]4CC(=O)CC[C@]4(C)[C@H]3CC[C@]12C	–	–	123	–	–	–	–
CCCCCCCCCCCC(=O)Oc1ccccc1	–	–	24.5	–	–	–	–
Cc1cccc(N)n1	208	–	41	–	–	–	–
Cc1c2ccccc2cc2ccc3ccccc3c12	–	–	138	–	–	–	–
Nc1cccc2cccc(N)c12	–	–	66.5	not readily biodegradable	–	–	–
FC(Cl)C(F)(F)Br (stereo not given)	52.5	–	–	–	–	–	–
NNC(=O)c1ccc(O)cc1	–	–	265	–	–	–	–
CC12CCC(CC1=O)C2(C)C (stereo not given)	206	-0.665	179	readily biodegradable	–	–	–

SMILES	boiling point [°C]	log10 vapour pressure (mmHg)	melting point [°C]	ready biodegradability	log10 Koc (L/kg)	log10 Henry constant (atm·m³/mol)	log10 biodegradation half-life (days)
CC(C)=CCl	68	–	–	–	–	–	–
CC1OC(=O)C=C2C3=C(OC(C)(C)CC3)C(=O)C(O)=C21 (stereo not given)	–	–	230	–	–	–	–
COC(=O)c1ccc(C(=O)OC)cc1	288	-2	141	readily biodegradable	–	–	–
Nc1ccc2cc(S(=O)(=O)O)cc(S(=O)(=O)O)c2c1	–	–	274	–	–	–	–
Nc1ccccc1-c1ccccc1	299	–	51	not readily biodegradable	–	–	–
CC(=O)Nc1c(C)cccc1C	–	–	183	–	–	–	–
CCCCC(Cl)CCl (stereo not given)	173	–	–	–	–	–	–
C=COCCCCCCCCCCCCCCCCCC	–	–	30	–	–	–	–
CCc1nccnc1OC	–	–	–	–	–	-4.83	–
O=C(O)C1CCNCC1	–	–	336	–	–	–	–
C=C[Si]1(C)O[Si](C)(C=C)O[Si](C)(C=C)O[Si](C)(C=C)O1 (stereo not given)	224	–	-43.5	–	–	–	–
CCCCCCC(=O)OC	174	–	-56	–	–	–	–
Oc1cc(O)cc(-c2cc(O)cc(O)c2)c1	–	–	310	–	–	–	–
CC(C)C[C@H](N)C(=O)O	–	–	293	–	–	–	–
Cc1cc(OC(=O)N(C)C)n(-c2ccccc2)n1	–	–	50	–	–	–	–
CCCB(O)O	–	–	107	–	–	–	–
[N-]=[N+]=Nc1ccccc1	–	–	-27.5	–	–	–	–
Oc1ccc(O)c(Br)c1	–	–	112	–	–	–	–
CC(C)C=CC(=O)O	217	–	35	–	–	–	–
CN(C)P(=O)(N(C)C)N(C)C	232	-1.34	7.2	not readily biodegradable	–	–	–
CCCC(C)(C)CC(C)C	151	–	–	–	–	–	–
N#C[S-].[K+]	–	–	173	–	–	–	–
CCOc1ccc(F)cc1	173	–	-8.5	–	–	–	–
CCCCCCCCCCCCCCCCCCN	347	–	52.9	–	–	–	–
COCC(F)(F)C(F)C(F)(F)F (stereo not given)	87.5	1.79	–	–	–	–	–
CCCCCCCCCCCCCC(O)CC (stereo not given)	–	–	50	–	–	–	–

SMILES	boiling point [°C]	log10 vapour pressure (mmHg)	melting point [°C]	ready biodegradability	log10 Koc (L/kg)	log10 Henry constant (atm·m³/mol)	log10 biodegradation half-life (days)
CCCC(C)CC(C)C (stereo not given)	133	–	–	–	–	–	0.778
O=c1nn[nH]c2ccccc12	–	–	217	–	–	–	–
CCCCCCCCCCCCCCCCCC(=O)Oc1ccccc1	–	–	52	–	–	–	–
C[C@]12Cc3nonc3C[C@@H]1CC[C@@H]1[C@@H]2CC[C@@]2(C)[C@H]1CC[C@]2(C)O	–	–	152	–	–	–	–
CC(=O)NCc1ccccc1	–	–	61	readily biodegradable	–	–	–
CC(=O)C(C)Cl (stereo not given)	115	–	–	–	–	–	–
c1ccc(CCCc2ccccc2)cc1	300	–	6	–	–	–	–
FC(F)(F)c1ccccc1Cl	152	0.706	-6	–	–	–	–
CC(C)(O)C#CC(C)(C)O	205	–	95	–	–	–	–
CP(C)(=O)O	–	–	92	–	–	–	–
CC(=O)OCC(=O)[C@@]1(O)[C@@H](C)C[C@H]2[C@@H]3CCC4=CC(=O)C=C[C@]4(C)[C@@]3(F)[C@@H](O)C[C@@]21C	–	–	248	–	–	–	–
CC(C)[C@]12CC(=O)[C@H](C)[C@H]1C2	203	-0.385	–	–	–	–	–
CCOC(=O)c1cn2nc(OP(=S)(OCC)OCC)cc2nc1C	–	–	51	–	–	–	–
Nc1nnc(-c2ccc([N+](=O)[O-])o2)s1	–	–	280	–	–	–	–
c1coc(CSSCc2ccco2)c1	–	–	10	–	–	–	–
CCCCCCCCCCCCCCCCCCCCCCCCCCCCCCO	–	–	88	–	–	–	–
O=[N+]([O-])c1cc(F)c(F)cc1F	194	–	-11	–	–	–	–
CCN(C)CC	66	–	-196	–	–	–	–
CC1(c2ccccc2)CCOCO1 (stereo not given)	256	–	37.5	–	–	–	–
CN1C(=O)CN=C(c2ccccc2F)c2cc([N+](=O)[O-])ccc21	–	–	166	–	–	–	–
CCC(N)Cc1c[nH]c2ccccc12 (stereo not given)	–	–	97	–	–	–	–
FC(Cl)(Cl)c1ccccc1	179	–	-26.8	–	–	–	–
Cc1ccccc1CC=O	221	–	–	–	–	–	–

same assay, conditions: fish

SMILES	log10 biotransformation half-life (days)	log10 BCF
CCc1ccc2ccc3cccc4ccc1c2c34	0.24	–
Oc1cc(Cl)c(Cl)cc1Cl	–	2.73
O=[N+]([O-])c1ccc(Cl)cc1	-0.48	1.3
CCCCOC(=O)c1ccccc1C(=O)OCc1ccccc1	-1.03	1.21
Nc1cccc2cccc(N)c12	-0.73	0.8
Nc1ccccc1-c1ccccc1	-1.06	1.41
CN(C)P(=O)(N(C)C)N(C)C	–	-0.3
